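Briefly, cells in 96-well plates were exposed to five compound concentrations for 48 h, and endpoints were estimated by linear interpolation. The concentration for full growth arrest is given as TGI.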
Columns and labels:
Test in all cases: NCI-60 cell line screen, 48 h
786-0 renal = test system: 786-0 renal
A498 renal = test system: A498 renal
A549 NSCLC = test system: A549 NSCLC
ACHN renal = test system: ACHN renal
CAKI-1 renal = test system: CAKI-1 renal
CCRF-CEM leukemia = test system: CCRF-CEM leukemia
COLO 205 colon = test system: COLO 205 colon
DLD-1 colon = test system: DLD-1 colon
DMS 114 small cell lung = test system: DMS 114 small cell lung
DMS 273 small cell lung = test system: DMS 273 small cell lung
EKVX NSCLC = test system: EKVX NSCLC
HCC-2998 colon = test system: HCC-2998 colon
HCT-116 colon = test system: HCT-116 colon
HCT-15 colon = test system: HCT-15 colon
HL-60(TB) leukemia = test system: HL-60(TB) leukemia
HOP-18 NSCLC = test system: HOP-18 NSCLC
HOP-62 NSCLC = test system: HOP-62 NSCLC
HOP-92 NSCLC = test system: HOP-92 NSCLC
HT29 colon = test system: HT29 colon
IGROV1 ovarian = test system: IGROV1 ovarian
K-562 leukemia = test system: K-562 leukemia
KM12 colon = test system: KM12 colon
KM20L2 colon = test system: KM20L2 colon
LOX IMVI melanoma = test system: LOX IMVI melanoma
LXFL 529 NSCLC = test system: LXFL 529 NSCLC
M14 melanoma = test system: M14 melanoma
MALME-3M melanoma = test system: MALME-3M melanoma
MOLT-4 leukemia = test system: MOLT-4 leukemia
NCI-H226 lung = test system: NCI-H226 lung
NCI-H23 lung = test system: NCI-H23 lung
NCI-H460 lung = test system: NCI-H460 lung
NCI-H522 lung = test system: NCI-H522 lung
OVCAR-3 ovarian = test system: OVCAR-3 ovarian
OVCAR-4 ovarian = test system: OVCAR-4 ovarian
OVCAR-5 ovarian = test system: OVCAR-5 ovarian
OVCAR-8 ovarian = test system: OVCAR-8 ovarian
RPMI-8226 leukemia = test system: RPMI-8226 leukemia
RXF 393 renal = test system: RXF 393 renal
RXF-631 renal = test system: RXF-631 renal
SF-268 CNS = test system: SF-268 CNS
SF-295 CNS = test system: SF-295 CNS
SF-539 CNS = test system: SF-539 CNS
SK-MEL-2 melanoma = test system: SK-MEL-2 melanoma
SK-MEL-28 melanoma = test system: SK-MEL-28 melanoma
SK-MEL-5 melanoma = test system: SK-MEL-5 melanoma
SK-OV-3 ovarian = test system: SK-OV-3 ovarian
SN12C renal = test system: SN12C renal
SNB-19 CNS = test system: SNB-19 CNS
SNB-75 CNS = test system: SNB-75 CNS
SNB-78 CNS = test system: SNB-78 CNS
SR leukemia = test system: SR leukemia
SW-620 colon = test system: SW-620 colon
TK-10 renal = test system: TK-10 renal
U251 CNS = test system: U251 CNS
UACC-257 melanoma = test system: UACC-257 melanoma
UACC-62 melanoma = test system: UACC-62 melanoma
UO-31 renal = test system: UO-31 renal
M19-MEL melanoma = test system: M19-MEL melanoma

Measured: TGI

COc1cccc(CC(C)N)c1 (centres undefined)
not listed: M19-MEL melanoma
> 100 µM: all other assays above

O=C1CCC(c2nc3cc(Cl)ccc3o2)C(=O)N1 (centres undefined)
not listed: RPMI-8226 leukemia
> 100 µM: all other assays above

— PubChem BioAssay (NCI)
